The text below walks through data of US6703413B2 (Rhode Island Hospital, priority 1999, dated 2004).

One data set has as its system human cancer cell lines. The data set can be described thus: Cytotoxic activity of taurultam in vitro. The class given is cell-based. As to the method:
The cytotoxic activity of taurultam was evaluated in vitro using the same human cancer cell lines as described above. […] The data also indicate that the cytotoxic effect is directly proportionate to the number of methylol molecules liberated per molecule of methylol-containing compound

Data set [1] deals with Untransfected glioblastoma cells. The data set can be described thus: Cytotoxicity in glioblastoma cells. In kind it is cell-based, human. To be noted: 1 μM.
Source text: (§1) The neoplastic cell lines used in the survey were standard tumor cell lines, e.g., PA1 human ovarian cell line, SKOV3 human ovarian cell line, HT29 human colon tumor cell line, DU145 human prostate tumor cell line, U251 human glioblastoma cell line, U251-MDR human glioblastoma cell line transfected with DNA encoding MDR, T98G human glioblastoma cell line, SP-1 human leukemia cell line, and Daudi human leukemia cell line.
(§2) Glioblastoma cells were transfected with a gene encoding multiple drug resistance (MDR).
In data set [2] the test system is MDR-transfected glioblastoma cells. The data set can be described thus: Cytotoxicity in drug resistant glioblastoma cells.
Source text: as §1, §2

As for `O=S1(=O)CCNCN1` [taurultam], the apoptotic death result in the data set on human cancer cell lines (cancer cells versus normal control cells) is recorded as “induced apoptotic death of cancer cells but not normal control cells”. Further, the “cytotoxic activity relative to taurolidine” value in the data set with human cancer cell lines (of the activity observed with taurolidine) was “approximately 75%”.
In the case of `COc1cccc2c1C(=O)c1c(O)c3c(c(O)c1C2=O)C[C@@](O)(C(=O)CO)C[C@@H]3O[C@H]1C[C@H](N)[C@H](O)[C@H](C)O1` [adriamycin], the cytotoxicity result in data set [1] is recorded as “killed”; in data set [2] (1 μM) it was “resistant”. For the same molecule, the “resistance of transfected cells” value in data set [2] (MDR-transfected versus untransfected) is recorded as 100-1000 times.
